Measured values taken from publication PMC3914206.

Tests used:
Type in all cases: binding
Design in all cases: KINOMEscan: ABL1(F317L)-phosphorylated / KINOMEscan: ABL1(H396P)-nonphosphorylated / KINOMEscan: ABL1(H396P)-phosphorylated / KINOMEscan: ABL1(M351T)-phosphorylated / KINOMEscan: ABL1(T315I)-phosphorylated / KINOMEscan: ABL1-nonphosphorylated / KINOMEscan: ABL1-phosphorylated / KINOMEscan: ACVR2A / KINOMEscan: ACVR2B / KINOMEscan: ADCK3 / KINOMEscan: ADCK4 / KINOMEscan: AKT1 / KINOMEscan: AKT3 / KINOMEscan: ALK / KINOMEscan: ARK5 / KINOMEscan: AURKA / KINOMEscan: AURKC / KINOMEscan: BIKE / KINOMEscan: BMPR1A / KINOMEscan: BMPR1B / KINOMEscan: BMX / KINOMEscan: BRK / KINOMEscan: BRSK1 / KINOMEscan: BRSK2 / KINOMEscan: CAMK1 / KINOMEscan: CAMK1D / KINOMEscan: CAMK1G / KINOMEscan: CAMK2A / KINOMEscan: CAMK2B / KINOMEscan: AAK1 / KINOMEscan: CAMK2D / KINOMEscan: CAMK2G / KINOMEscan: ABL1(F317I)-nonphosphorylated / KINOMEscan: ABL1(F317I)-phosphorylated / KINOMEscan: ABL1(F317L)-nonphosphorylated: unit: % Ctrl
[1] = molecular target: T1, panel of 442 kinases (Homo sapiens, UniProt Q13627); settings: Compound Concentration 10 µM
T1 construct: purchased KINOMEscan
Excerpt: (§1) We assessed the selectivity of members of this scaffold using the KINOMEscan methodology across a near comprehensive panel of 442 kinases [[18,27]].

[2] = molecular target: T2, panel of 442 kinases (Homo sapiens, UniProt Q9Y243); settings: Compound Concentration 10 µM
T2 construct: purchased KINOMEscan
T2 sequence (Q9Y243 whole entry): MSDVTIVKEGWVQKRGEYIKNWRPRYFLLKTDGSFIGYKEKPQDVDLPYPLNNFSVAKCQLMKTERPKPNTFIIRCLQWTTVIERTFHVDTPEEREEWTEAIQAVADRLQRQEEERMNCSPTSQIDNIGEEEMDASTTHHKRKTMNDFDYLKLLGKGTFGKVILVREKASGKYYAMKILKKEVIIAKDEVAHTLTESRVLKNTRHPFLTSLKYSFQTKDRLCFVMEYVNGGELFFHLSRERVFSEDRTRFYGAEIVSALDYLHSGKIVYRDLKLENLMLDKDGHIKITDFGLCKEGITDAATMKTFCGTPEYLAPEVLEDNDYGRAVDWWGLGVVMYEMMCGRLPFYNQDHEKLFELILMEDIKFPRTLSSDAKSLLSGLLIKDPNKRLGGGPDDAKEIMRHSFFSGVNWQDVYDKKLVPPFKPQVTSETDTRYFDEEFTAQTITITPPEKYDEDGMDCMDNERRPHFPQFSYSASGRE
Excerpt: as §1

[3] = molecular target: T3, panel of 442 kinases (Homo sapiens, UniProt Q9H3Y6); settings: kinase SRMS; compound concentration 10 µM
T3 construct: purchased KINOMEscan
T3 sequence (Q9H3Y6 whole entry): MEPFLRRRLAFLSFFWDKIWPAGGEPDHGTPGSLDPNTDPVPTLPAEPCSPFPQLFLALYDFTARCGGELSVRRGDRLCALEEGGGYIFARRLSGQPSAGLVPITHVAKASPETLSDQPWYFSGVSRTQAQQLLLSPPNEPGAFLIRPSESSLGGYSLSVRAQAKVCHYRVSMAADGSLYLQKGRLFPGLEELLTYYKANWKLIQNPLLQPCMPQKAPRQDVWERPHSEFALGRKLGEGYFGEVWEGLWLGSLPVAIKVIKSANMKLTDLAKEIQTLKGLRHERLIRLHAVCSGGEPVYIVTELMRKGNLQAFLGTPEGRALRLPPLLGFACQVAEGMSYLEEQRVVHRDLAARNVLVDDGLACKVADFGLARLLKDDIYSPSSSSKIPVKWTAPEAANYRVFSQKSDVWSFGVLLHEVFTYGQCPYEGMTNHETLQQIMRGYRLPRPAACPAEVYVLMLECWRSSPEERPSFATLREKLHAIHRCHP
Excerpt: as §1

[4] = molecular target: T4, panel of 442 kinases (Homo sapiens, UniProt P00533, DEL746-750); settings: Compound Concentration 10 µM
T4 construct: purchased KINOMEscan
T4 sequence (P00533 with tags, fused parts or gaps DEL746-750): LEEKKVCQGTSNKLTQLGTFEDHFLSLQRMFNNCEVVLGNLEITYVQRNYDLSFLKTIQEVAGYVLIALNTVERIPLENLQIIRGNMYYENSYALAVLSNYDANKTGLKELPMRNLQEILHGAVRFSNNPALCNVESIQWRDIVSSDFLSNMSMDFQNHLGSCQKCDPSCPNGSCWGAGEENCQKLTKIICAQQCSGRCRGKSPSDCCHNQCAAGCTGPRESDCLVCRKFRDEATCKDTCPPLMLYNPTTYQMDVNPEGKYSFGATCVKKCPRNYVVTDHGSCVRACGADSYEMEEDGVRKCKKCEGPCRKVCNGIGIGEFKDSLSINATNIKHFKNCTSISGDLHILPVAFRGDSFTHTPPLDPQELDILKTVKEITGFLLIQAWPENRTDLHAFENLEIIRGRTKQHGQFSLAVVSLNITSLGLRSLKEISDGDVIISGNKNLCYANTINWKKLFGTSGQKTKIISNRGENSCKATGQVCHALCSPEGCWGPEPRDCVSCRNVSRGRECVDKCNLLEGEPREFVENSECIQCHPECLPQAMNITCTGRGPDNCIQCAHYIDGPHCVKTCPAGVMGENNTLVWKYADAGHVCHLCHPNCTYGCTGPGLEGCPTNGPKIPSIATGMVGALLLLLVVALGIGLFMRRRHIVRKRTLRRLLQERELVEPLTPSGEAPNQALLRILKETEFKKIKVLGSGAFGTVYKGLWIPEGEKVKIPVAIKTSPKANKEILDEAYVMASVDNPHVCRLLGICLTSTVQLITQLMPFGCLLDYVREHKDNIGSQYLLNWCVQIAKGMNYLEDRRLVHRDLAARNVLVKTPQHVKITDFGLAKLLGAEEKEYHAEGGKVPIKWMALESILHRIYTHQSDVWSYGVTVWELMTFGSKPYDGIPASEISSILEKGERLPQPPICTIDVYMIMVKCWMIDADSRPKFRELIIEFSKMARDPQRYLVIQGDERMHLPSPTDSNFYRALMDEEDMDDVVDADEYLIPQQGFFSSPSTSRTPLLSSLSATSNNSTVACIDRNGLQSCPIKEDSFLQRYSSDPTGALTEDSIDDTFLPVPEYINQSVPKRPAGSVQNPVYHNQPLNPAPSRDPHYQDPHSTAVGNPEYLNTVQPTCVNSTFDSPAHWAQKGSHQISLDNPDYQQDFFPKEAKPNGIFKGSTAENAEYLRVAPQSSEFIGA
Excerpt: as §1

CCOc1cc(C(=O)N2CCC(N3CCN(C)CC3)CC2)ccc1Nc1ncc2c(n1)N(C1CCCC1)c1ccccc1C(=O)N2C [Compound 26]
KINOMEscan: DYRK1A [1]: 88 | KINOMEscan: AKT3 [2]: 84 | % Ctrl, SRMS [3]: 82 % Ctrl | KINOMEscan: EGFR(E746-A750del) [4]: 100

COc1cc(C(=O)N2CCC(N3CCN(C)CC3)CC2)ccc1Nc1ncc2c(n1)N(C1CCCC1)c1ccccc1C(=O)N2C [Compound 25, 11-cyclopentyl-2-((2-methoxy-4-(4-(4-methylpiperazin-1-yl)piperidine-1-carbonyl)phenyl)amino)-5-methyl-5H-benzo[e]pyrimido[5,4-b][1,4]diazepin-6(11H)-one]
KINOMEscan: DYRK1A [1]: 100 | KINOMEscan: AKT3 [2]: 100 | % Ctrl, SRMS [3]: 100 % Ctrl | KINOMEscan: EGFR(E746-A750del) [4]: 80

COc1cc(C(=O)N2CCC(N3CCN(C)CC3)CC2)ccc1Nc1ncc2c(n1)N1CCc3cccc(c31)C(=O)N2C [Compound 24]
KINOMEscan: DYRK1A [1]: 67 | % Ctrl, SRMS [3]: 100 % Ctrl

COc1cc(C(=O)N2CCC(N3CCN(C)CC3)CC2)ccc1Nc1ncc2c(n1)N(C)c1ccccc1C(=O)N2C [15 (LRRK2-IN-1)]
KINOMEscan: DYRK1A [1]: 99 | KINOMEscan: AKT3 [2]: 100 | % Ctrl, SRMS [3]: 77 % Ctrl | KINOMEscan: EGFR(E746-A750del) [4]: 72
